Results from patent US20260266848A1, “COMPOSITIONS AND METHODS FOR DIAGNOSING AND TREATING DYSTONIA” (Duke University, priority 2023, published 2026).

Assays:
[1] = system: DYT1 patient plasma derived EVs; assay: Plasma-derived EV proteomics (ExoQuick ULTRA, DIA LC/MS/MS), DYT1 vs Healthy Controls; design: species or system human; conditions: Hs. Plasma EVs (DYT1/WT); significance of genotype difference
Experimental: Data was obtained for extracellular vesicles using previously acquired samples. The ExoQuick® ULTRA EV Isolation System was used to fractionate and enrich EVs from plasma. Isolated plasma EV samples were then submitted to proteomic analysis by the Duke Proteomics and Metabolomics Core Facility (DPMCF). At the DPMCF, quantitative (LC/MS/MS) was performed on 500 ng of each sample, using an EvoSep One UPLC system coupled to a Thermo Orbitrap Astral high-resolution accurate mass tandem mass spectrometer (Thermo). Briefly, the sample was eluted directly from an Evotip which was subjected to a low organic wash and then subjected to an analytical separation using a 1.7 μm EvoSep 150 um ID×15 cm endurance (EveoSep) column running an SPD30 gradient from approximately 5 to 30% acetonitrile with 0.1% formic acid with a column temperature of 50 C. Data collection on the Orbitrap Astral mass spectrometer was performed in a data-independent acquisition (DIA) mode of acquisition with a r=240,000 (@m/z 200) full MS scan from m/z 380-980 with a target AGC value of 4e5 ions. Fixed DIA, windows of 4 m/z from m/z 380 to 980 DIA MS/MS scans were acquired in the Astral with a target AGC value of 5e4 and a max fill time of 6 ms. HCD collision energy setting of 27% was used for all MS2 scans.

[2] = system: DYT1 patient plasma; assay: Whole plasma metabolomics (Biocrates MxP Quant 500 Kit), DYT1 vs Healthy Controls; conditions: DYT1-Dystonia vs Healthy Control
From the text: Duke Proteomics and Metabolomics Core Facility (DPMCF) also analyzed metabolites from 41 plasma samples using the Biocrates MxP Quant 500 Kit. Plasma from 14 subjects with DYT1 and 27 Healthy Controls was utilized.

[3] = system: WT MEF EVs; assay: Quantitative LC-MS/MS proteomics of EVs from ISRIB-treated WT MEF cultures; type: cell-based, mouse; design: key to ISRIB and DYT Parallel Direction / ISRIB and DYT Parallel Direction, Ctdsp1 / ISRIB and DYT Parallel Direction, Pcdh19 / ISRIB and DYT Parallel Direction, Tspan7 / ISRIB and DYT Parallel Direction, Myo1e / ISRIB and DYT Parallel Direction, Plpp3 / ISRIB and DYT Parallel Direction, Sh3bp4 / ISRIB and DYT Parallel Direction, Dnajc7 / ISRIB and DYT Parallel Direction, Drg1 / ISRIB and DYT Parallel Direction, Maea: YES = protein abundance effect similar to DYT/WT; conditions: EV protein abundance; for WT + ISRIB/WT Cohen's d: ISRIB-treated WT vs WT; for ISRIB and DYT Parallel Direction: WT + ISRIB vs WT, direction compared with DYT/WT
[4] = system: DYT-TOR1A MEF EVs; assay: Quantitative LC-MS/MS proteomics of EVs from drug-treated DYT-TOR1A MEF cultures (ritonavir, salubrinal); type: cell-based, mouse; design: key to RTV Corrective Direction / RTV Corrective Direction, Grwd1 / RTV Corrective Direction, Srrm2 / RTV Corrective Direction, Rbm17 / RTV Corrective Direction, Dcaf8 / RTV Corrective Direction, Edil3 / RTV Corrective Direction, Timp3 / RTV Corrective Direction, Heatr3 / RTV Corrective Direction, Brd4 / RTV Corrective Direction, P3h4 / RTV Corrective Direction, Pacsin3 / RTV Corrective Direction, Naa50 / RTV Corrective Direction, Lpar6 / RTV Corrective Direction, Ndrg1 / RTV Corrective Direction, Kntc1 / RTV Corrective Direction, Cdk11b / RTV Corrective Direction, Sumo1 / RTV Corrective Direction, Lsm4 / RTV Corrective Direction, Hmga2 / RTV Corrective Direction, Cstf1 / RTV Corrective Direction, Tes / RTV Corrective Direction, Sbno1 / RTV Corrective Direction, Unc119b / RTV Corrective Direction, Cfdp1 / RTV Corrective Direction, Sec61b: YES = protein abundance effect opposite to DYT/WT; conditions: EV protein abundance; for RTV Corrective Direction: DYT + RTV (ritonavir) vs DYT, direction compared with DYT/WT; for DYT + RTV/DYT Cohen's d: ritonavir (RTV)-treated DYT vs DYT

Compound | -LogP [1] | -LogP [2] | WT + ISRIB/WT Cohen's d [3] | RTV Corrective Direction [4] | DYT + RTV/DYT Cohen's d [4] | ISRIB and DYT Parallel Direction [3]
TGFB2 | 2.018 |  |  |  |  | 
PI4KA | 2.66 |  |  |  |  | 
NCCCCC(=O)O [5-AVA_Aminoacids Related] |  | 2.862 |  |  |  | 
TLN2 | 1.45 |  |  |  |  | 
MAPK3 | 1.682 |  |  |  |  | 
CCCCCCCCCCCCCCCCCCCCCCCCCC(=O)OC[C@@H](O)COP(=O)([O-])OCC[N+](C)(C)C [lysoPC a C26:0_Glycerophospholipids] |  | 2.027 |  |  |  | 
MYH9 | 1.313 |  |  |  |  | 
TARDBP | 1.352 |  |  |  |  | 
PCMT1 | 1.506 |  |  |  |  | 
N[C@@H](CSSC[C@H](N)C(=O)O)C(=O)O [Cystine_Aminoacids Related] |  | 2.546 |  |  |  | 
Svep1 |  |  | −0.50 | YES | −0.40 | 
N[C@@H](CC(=O)O)C(=O)O [Asp_Aminoacids] |  | 1.99 |  |  |  | 
Cnot1 |  |  | −2.56 | YES | 5.54 | YES
Huwe1 |  |  | −3.93 | YES | 5.04 | YES
Sptbn1 |  |  | −0.82 | YES | 3.27 | YES
CCCCCCCCCCCCCCCCCCCCCCCCCCCC(=O)OC[C@@H](O)COP(=O)([O-])OCC[N+](C)(C)C [lysoPC a C28:0_Glycerophospholipids] |  | 1.585 |  |  |  | 
Notch3 |  |  | 0.52 | YES | −2.22 | YES

Compound | -LogP [1] | -LogP [2] | WT + ISRIB/WT Cohen's d [3] | RTV Corrective Direction [4] | DYT + RTV/DYT Cohen's d [4] | ISRIB and DYT Parallel Direction [3]
Itpa |  |  | −1.25 | YES | 12.80 | YES
DLST | 1.928 |  |  |  |  | 
Ilf2 |  |  | −1.37 | YES | 2.47 | YES
Usp7 |  |  | −1.90 | YES | 6.89 | YES
Sar1a |  |  | −1.23 | YES | 4.40 | YES
Col5a1 |  |  | 0.06 | YES | −0.89 | YES
RHOA | 1.674 |  |  |  |  | 
PSME4 | 1.398 |  |  |  |  | 
TLN1 | 1.51 |  |  |  |  | 
Prpf8 |  |  | −0.01 | YES | 7.95 | YES
FLNA | 1.743 |  |  |  |  | 
Oxsr1 |  |  | −0.72 | YES | 5.88 | YES
Gmppb |  |  | −2.41 | YES | 5.38 | YES
Spp1 |  |  | 2.67 | YES | −6.93 | YES
CRYAB | 1.577 |  |  |  |  | 
PSMC5 | 1.615 |  |  |  |  | 
Cc1ccc(OS(=O)(=O)O)cc1 [p-Cresol-SO4_Cresols] |  | 1.433 |  |  |  | 
